Common to all, as to type: cell-based
The subject of one test is MDA-MB231. The test is described as follows: MTT assay, MDA-MB231 breast cancer cells. As to conditions: Homo sapiens, MDA-MB-231; for viability at 10 µM: 72 h after the treatment, mean of three independent experiments, read-out: Percentage of cell viability MDA-MB231. As for the experimental part: (§1) The prepared compounds 1–126 were tested on three breast cancer cell lines namely, MDA-MB231, SKBR-3 and MCF-7 using MTT assay. SKBR-3 and MCF-7 cell lines are estrogen and progesterone hormone positive cell lines often used as a model for the hormone therapy.[18] MDA-MB231 is triple negative breast cancer cell line, which is negative to estrogen and progesterone receptors and human epidermal growth factor receptor 2, a perfect model for chemotherapy.[18] Initially, all the prepared compounds 1–126 were tested on these three cancer cell lines at the screening concentration (10 μM) and percentage of cell viability was calculated 72 h after the treatment (Table 1).
(§2) The growth inhibitory effect of the compounds was determined on breast tumor cell line (MDA-MB231, SKBR-3 and MCF-7) at different concentrations with methotrexate and nilotinib as positive controls (Table 2).
(§3) The cytotoxic activity of 6,N^2-diaryl-1,3,5-triazine-2,4-diamines (1–126) was evaluated against three breast carcinoma cell lines (MDA-MB231, SKBR-3, and MCF-7) and normal breast cell line (MCF-10A) by MTT assay.[22] All cells were obtained from the American Type Culture Collection and were grown in 10% fetal bovine serum and 1% pen-strep antibiotic supplemented media (DMEM for MDA-MB231 and SKBR-3, RPMI for MCF-7, and MEGM for MCF-10A). For MTT assay, 20 000 to 75 000 cells per mL (based on the doubling time for each cell line) were seeded in 96 well plates and incubated for 24 h at 37 °C in 5% CO2 incubator. Then, compounds at different concentrations were added followed by the incubation at 37 °C for 72 h. After that, MTT solution (0.5 mg mL^−1) was added and the plates were incubated for another 4 h. The supernatant was then discarded and 100 μL of DMSO was added to each well. The plates were then read by Tecan NanoQuant (model: infinite m200 pro) plate reader and absorbance was measured at 570 nm. GI50 values were calculated using sigmoidal concentration–response curves (see ESI ^†) generated using the GraphPad Prism 7 program. Three independent experiments were carried out and the data were represented as mean of the three experiments.
On the technique in general: Tetrazolium dyes change colour on reduction, which living cells bring about.

In a further test the test system is MCF-10A. The experiment in a line: MTT assay, MCF-10A normal breast cells. Conditions: Homo sapiens, 72 h, read-out: GI50 (μM) ± SEM MCF-10A. As for the experimental part: All the compounds, selected for determination of GI50 values against MDA-MB231 cells, were also used for the experiments with MCF-10A normal breast cells.
as §3

For a further test, the system named is MCF-7. The test is described as follows: MTT assay, MCF-7 breast cancer cells. Conditions: Homo sapiens; for viability at 10 µM: MCF7, 10 μM, 72 h after the treatment, mean of three independent experiments, read-out: Percentage of cell viability MCF-7; for GI50: MCF7, 72 h, mean of three independent experiments ± SEM. Here is the method: as §1, §2, §3
Another test deals with SKBR-3. The experiment in a line: MTT assay, SKBR-3 breast cancer cells. Conditions: Homo sapiens, SK-BR-3, MTT; for viability at 10 µM: 72 h after the treatment, mean of three independent experiments, read-out: Percentage of cell viability SKBR-3; for GI50: 72 h, mean of three independent experiments ± SEM. Here is the method:
as §1, §2, §3

The mark [1] stands for this setting: 72 h, MTT, mean of three independent experiments ± SEM, read-out: GI50 (μM) ± SEM MDA-MB231.
The mark [2] stands for this setting: −log[GI50], MDA-MB231, read-out: Experimental pGI50 (converted).

27 compounds from paper PMC9050923, “6,N^2-Diaryl-1,3,5-triazine-2,4-diamines: synthesis, antiproliferative activity and 3D-QSAR modeling” (RSC Advances, 2020) can be followed below.

Read-outs that look alike come from different tables or passages of the source.

Consider `Nc1nc(Nc2ccccc2)nc(-c2ccc(OCc3ccccc3)cc2)n1` [Compound 110], for which the viability (usually the share of living cells, or the viability signal relative to a control) at 10 µM in the test with MDA-MB231 (MTT) worked out at 51%; in the test with MCF-7 it was 100%; in the test on SKBR-3, 75%. The GI50 in the test with MDA-MB231 (setting [1]) is 13.4 ± 1.18 µM; in the test on MDA-MB231 (setting [2]), 13.5 µM; with MCF-10A, > 25 µM; with MCF-7, > 20 µM; in the test with SKBR-3, > 20 µM.
Consider `Cc1ccc(-c2nc(N)nc(Nc3ccccc3F)n2)cc1` [Compound 61], for which the viability at 10 µM in the test on MDA-MB231 (MTT) amounted to 50%; in the test on MCF-7, 73%; with SKBR-3, 79%. The GI50 in the test with MDA-MB231 (setting [1]) was 12.2 ± 1.15 µM; in the test on MDA-MB231 (setting [2]), 12.3 µM; with MCF-10A, > 25 µM; in the test with MCF-7, > 20 µM; with SKBR-3, > 20 µM.
For the compound `CN(C)c1ccc(-c2nc(N)nc(Nc3ccc(F)cc3)n2)cc1` [Compound 102], the viability at 10 µM is 32% in the test on MDA-MB231 (MTT), 90% with MCF-7 and 88% in the test on SKBR-3. Besides, the GI50 with MDA-MB231 (setting [1]) is 7.2 ± 0.94 µM; in the test with MDA-MB231 (setting [2]), 7.24 µM; in the test with MCF-10A it was > 25 µM; in the test on MCF-7 it was > 20 µM; with SKBR-3, > 20 µM.
Turning to `Nc1nc(Nc2ccc(F)cc2)nc(-c2ccc(Cl)cc2)n1` [Compound 36], the viability at 10 µM in the test on MDA-MB231 (MTT) worked out at 49%; in the test on MCF-7, 100%; in the test with SKBR-3, 98%. The GI50 with MDA-MB231 (setting [1]) was 14.1 ± 1.52 µM; in the test with MDA-MB231 (setting [2]) it was 14.1 µM; with MCF-10A it was > 25 µM; with MCF-7 it was > 20 µM; in the test on SKBR-3, 19.4 ± 2.39 µM.
As for `Cc1ccc(Nc2nc(N)nc(-c3cccs3)n2)cc1` [Compound 121], the viability at 10 µM was found to be 49% in the test with MDA-MB231 (MTT), 97% in the test on MCF-7 and 95% with SKBR-3. In addition, the GI50 in the test on MDA-MB231 (setting [1]) is 13.9 ± 1.74 µM; in the test with MDA-MB231 (setting [2]), 13.8 µM; in the test with MCF-10A, > 25 µM; in the test on MCF-7, > 20 µM; with SKBR-3 it was > 20 µM.
Take `COc1ccc(-c2nc(N)nc(Nc3cccc(C)c3)n2)cc1` [Compound 77]: the figures for the viability at 10 µM in the test with MDA-MB231 (MTT), in the test with MCF-7 and with SKBR-3 were 22%, 79% and 40%, respectively. Further, the GI50 is 0.95 ± 0.04 µM in the test on MDA-MB231 (setting [1]); 0.955 µM in the test on MDA-MB231 (setting [2]); > 25 µM in the test with MCF-10A; > 20 µM in the test with MCF-7; 3.38 ± 0.36 µM with SKBR-3.
Regarding `COc1ccc(-c2nc(N)nc(Nc3cccnc3)n2)cc1` [Compound 81], the viability at 10 µM in the test with MDA-MB231 (MTT) is 46%; in the test with MCF-7 it was 91%; with SKBR-3 it was 77%. Moreover, the GI50 is 14 ± 1.33 µM in the test with MDA-MB231 (setting [1]), > 25 µM with MCF-10A, > 20 µM in the test on MCF-7 and 15.6 ± 1.06 µM with SKBR-3.
Turning to `CN(C)c1ccc(-c2nc(N)nc(Nc3ccccc3F)n2)cc1` [Compound 101], the viability at 10 µM with MDA-MB231 (MTT) came out at 28%; in the test on MCF-7, 88%; with SKBR-3, 51%. The GI50 is 0.06 ± 0.001 µM with MDA-MB231 (setting [1]); 0.0603 µM in the test on MDA-MB231 (setting [2]); > 25 µM in the test on MCF-10A; > 20 µM in the test with MCF-7; 0.29 ± 0.04 µM in the test with SKBR-3.
For the compound `Nc1nc(Nc2ccc(F)cc2)nc(-c2cccc(F)c2)n1` [Compound 14], the viability at 10 µM in the test with MDA-MB231 (MTT) worked out at 50%; in the test with MCF-7, 78%; with SKBR-3, 100%. Moreover, the GI50 with MDA-MB231 (setting [1]) was 9.21 ± 0.38 µM; in the test with MDA-MB231 (setting [2]), 9.12 µM; in the test with MCF-10A it was > 25 µM; in the test on MCF-7, > 20 µM; with SKBR-3 it was > 20 µM.
As for `COc1ccccc1Nc1nc(N)nc(-c2ccc(OC(F)(F)F)cc2)n1` [Compound 95], the viability at 10 µM turned out to be 46% with MDA-MB231 (MTT), 88% in the test on MCF-7 and 81% in the test with SKBR-3. In addition, the GI50 with MDA-MB231 (setting [1]) is 12.8 ± 0.76 µM; in the test on MDA-MB231 (setting [2]), 12.9 µM; in the test on MCF-10A, > 25 µM; in the test on MCF-7 it was > 20 µM; in the test with SKBR-3, > 20 µM.
For the compound `Cc1cccc(-c2nc(N)nc(Nc3ccc(F)cc3)n2)c1` [Compound 53, N ^2-(4-Fluorophenyl)-6-(3-methylphenyl)-1,3,5-triazine-2,4-diamine], the viability at 10 µM in the test on MDA-MB231 (MTT) is 100%; with MCF-7 it was 78%; in the test on SKBR-3 it was 100%.
Take `COc1ccc(Nc2nc(N)nc(-c3ccc(OC(F)(F)F)cc3)n2)cc1` [Compound 96]: the viability at 10 µM in the test on MDA-MB231 (MTT) was determined as 69%; in the test on MCF-7 it was 87%; with SKBR-3, 88%.
As to `Cc1ccc(Nc2nc(N)nc(-c3ccc(OC(F)(F)F)cc3)n2)cc1` [Compound 94], the viability at 10 µM in the test on MDA-MB231 (MTT) is 79%; in the test on MCF-7, 97%; in the test with SKBR-3, 87%.
In the case of `CC(C)c1ccc(Nc2nc(N)nc(-c3cccs3)n2)cc1` [Compound 125], the figures for the viability at 10 µM in the test on MDA-MB231 (MTT), in the test on MCF-7 and in the test with SKBR-3 were 100%, 89% and 86%, respectively.
For `Nc1nc(Nc2ccc(Br)cc2)nc(-c2ccccc2)n1` [Compound 6] the same measures were 65%, 100% and 97%.
For `Nc1nc(Nc2ccccc2Cl)nc(-c2ccccc2)n1` [Compound 4, N ^2-(2-Chlorophenyl)-6-phenyl-1,3,5-triazine-2,4-diamine] the same measures were 72%, 81% and 88%.
For the compound `COc1ccccc1Nc1nc(N)nc(-c2ccc(Cl)cc2)n1` [Compound 41], the viability at 10 µM in the test on MDA-MB231 (MTT) was found to be 83%; in the test on MCF-7, 100%; in the test on SKBR-3, 89%.
As for `CC(C)c1ccc(Nc2nc(N)nc(-c3ccc(OC(F)(F)F)cc3)n2)cc1` [Compound 98], the viability at 10 µM in the test with MDA-MB231 (MTT) amounted to 100%; in the test on MCF-7, 95%; with SKBR-3, 90%.
The like results for `Nc1nc(Nc2ccc(OC(F)(F)F)cc2)nc(-c2ccc(Cl)cc2)n1` [Compound 43] were, in that order, 93%, 100% and 83%.
Regarding `COc1ccc(Nc2nc(N)nc(-c3cccc(C)c3)n2)cc1` [Compound 57, N ^2-(4-Methoxyphenyl)-6-(3-methylphenyl)-1,3,5-triazine-2,4-diamine], the viability at 10 µM in the test on MDA-MB231 (MTT) is 91%; in the test on MCF-7, 75%; in the test on SKBR-3, 90%.
With `Nc1nc(Nc2cccnc2)nc(-c2ccc(F)cc2)n1` [Compound 33], the viability at 10 µM in the test with MDA-MB231 (MTT) worked out at 74%; in the test with MCF-7 it was 85%; with SKBR-3, 87%.
For the compound `Cc1cccc(-c2nc(N)nc(Nc3ccc(C(C)C)cc3)n2)c1` [Compound 59, N ^2-(4-Isopropylphenyl)-6-(3-methylphenyl)-1,3,5-triazine-2,4-diamine], the viability at 10 µM in the test with MDA-MB231 (MTT) amounted to 87%; in the test on MCF-7 it was 76%; with SKBR-3, 93%.
As for `Nc1nc(Nc2ccc(F)cc2)nc(-c2cccs2)n1` [Compound 117], the viability at 10 µM with MDA-MB231 (MTT) is 100%; in the test with MCF-7, 92%; in the test on SKBR-3 it was 86%.
For the compound `Nc1nc(Nc2ccc(OC(F)(F)F)cc2)nc(-c2ccc(OC(F)(F)F)cc2)n1` [Compound 97], the viability at 10 µM in the test on MDA-MB231 (MTT) was determined as 92%; with MCF-7 it was 100%; in the test with SKBR-3, 80%.
As to `Nc1nc(Nc2ccccc2F)nc(-c2ccc(F)cc2)n1` [Compound 22], the viability at 10 µM in the test on MDA-MB231 (MTT) turned out to be 83%; with MCF-7 it was 100%; in the test with SKBR-3 it was 85%.
As for `COc1ccc(Nc2nc(N)nc(-c3ccc(C(F)(F)F)cc3)n2)cc1` [Compound 88], the viability at 10 µM was 81% in the test with MDA-MB231 (MTT), 100% in the test with MCF-7 and 86% in the test on SKBR-3.
With `Cc1ccc(-c2nc(N)nc(Nc3ccccc3)n2)cc1` [Compound 60], the values for the viability at 10 µM with MDA-MB231 (MTT), in the test on MCF-7 and with SKBR-3 were 84%, 100% and 100%, respectively.
